PubChem BioAssay AID252 (DTP/NCI, 2004)
Values joined by “and” are separate entries in the source; they are usually repeats but may differ in a detail not shown here. Equal values may be shown once. Toxic doses and inconclusive results are not listed.

Test system: BDF1 mice, intracerebral L1210 leukemia, survival T/C
Assay: NCI In Vivo Anticancer Drug Screen. Data for tumor model L1210 Leukemia (intracerebral) in B6D2F1 (BDF1) mice
Settings: higher = longer survival
Procedure, shortened: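 Transplantable tumour-bearing mice, compound-treated vs vehicle controls; read-out survival, reported as T/C ratio.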

## CCC(=O)NC1=C(N2CC2)C(=O)C(NC(=O)CC)=C(N2CC2)C1=O
endpoint: mean survival time, dose: 0.5 mg/kg/injection, schedule: Q01DX009 (ip), vehicle: saline
  T/C: 105 % of control
endpoint: mean survival time, dose: 2.0 mg/kg/injection, schedule: Q01DX009 (ip), vehicle: saline
  T/C: 117 % of control

## C#CCOCC(CCl)OC(=O)Nc1ccccc1 (stereo not drawn)
endpoint: mean survival time, dose: 25.0 mg/kg/injection, schedule: Q04DX003 (ip), vehicle: saline with Tween-80
  T/C: 100 % of control
endpoint: mean survival time, dose: 50.0 mg/kg/injection, schedule: Q04DX003 (ip), vehicle: saline with Tween-80
  T/C: 115 % of control
endpoint: mean survival time, dose: 100.0 mg/kg/injection, schedule: Q04DX003 (ip), vehicle: saline with Tween-80
  T/C: 105 % of control
endpoint: mean survival time, dose: 200.0 mg/kg/injection, schedule: Q04DX003 (ip), vehicle: saline with Tween-80
  T/C: 109 % of control
endpoint: mean survival time, dose: 400.0 mg/kg/injection, schedule: Q04DX003 (ip), vehicle: saline with Tween-80
  T/C: 105 % of control

## O=NN(CCCl)C(=O)N[C@@H]1CCCC[C@H]1NC(=O)N(CCCl)N=O
endpoint: mean survival time, dose: 67.0 mg/kg/injection, schedule: Q01DX001 (ip), vehicle: carboxymethylcellulose (CMC)
  T/C: 118 % of control
endpoint: mean survival time, dose: 72.0 mg/kg/injection, schedule: Q01DX001 (ip), vehicle: carboxymethylcellulose (CMC)
  T/C: 124 % of control
endpoint: mean survival time, dose: 100.0 mg/kg/injection, schedule: Q01DX001 (ip), vehicle: carboxymethylcellulose (CMC)
  T/C: 124 % of control
endpoint: mean survival time, dose: 150.0 mg/kg/injection, schedule: Q01DX001 (ip), vehicle: carboxymethylcellulose (CMC)
  T/C: 162 % of control
endpoint: mean survival time, dose: 240.0 mg/kg/injection, schedule: Q01DX001 (ip), vehicle: carboxymethylcellulose (CMC)
  T/C: 166 % of control

## O=P1(N(CCCl)CCCl)NCCCO1 (stereo not drawn)
endpoint: mean survival time, dose: 17.5 mg/kg/injection, schedule: Q01DX Z (ip), vehicle: saline
  T/C: 116 % of control
endpoint: mean survival time, dose: 22.0 mg/kg/injection, schedule: Q01DX015 (ip), vehicle: saline
  T/C: 112 % of control
endpoint: mean survival time, dose: 25.0 mg/kg/injection, schedule: Q01DX Z (ip), vehicle: saline
  T/C: 121 % of control
endpoint: mean survival time, dose: 28.0 mg/kg/injection, schedule: Q01DX001 (ip), vehicle: saline
  T/C: 104 % of control and 118 % of control
endpoint: mean survival time, dose: 33.5 mg/kg/injection, schedule: Q01DX015 (ip), vehicle: saline
  T/C: 123 % of control
endpoint: mean survival time, dose: 39.0 mg/kg/injection, schedule: Q01DX009 (sc), vehicle: saline
  T/C: 151 % of control
endpoint: mean survival time, dose: 50.0 mg/kg/injection, schedule: Q01DX001 (ip), vehicle: DMSO
  T/C: 111 % of control and 119 % of control and 121 % of control
endpoint: mean survival time, dose: 50.0 mg/kg/injection, schedule: Q01DX001 (ip), vehicle: Klucel (hydroxypropylcellulose) (HPC)
  T/C: 119 % of control and 121 % of control
endpoint: mean survival time, dose: 50.0 mg/kg/injection, schedule: Q01DX001 (ip), vehicle: water
  T/C: 111 % of control
endpoint: mean survival time, dose: 50.0 mg/kg/injection, schedule: Q08DX002 (ip), vehicle: saline
  T/C: 115 % of control
endpoint: mean survival time, dose: 59.0 mg/kg/injection, schedule: Q01DX001 (ip), vehicle: saline
  T/C: 117 % of control
endpoint: mean survival time, dose: 65.0 mg/kg/injection, schedule: Q01DX009 (sc), vehicle: saline
  T/C: 151 % of control
endpoint: mean survival time, dose: 100.0 mg/kg/injection, schedule: Q01DX001 (ip), vehicle: water
  T/C: 112 % of control
endpoint: mean survival time, dose: 100.0 mg/kg/injection, schedule: Q01DX Z (ip), vehicle: saline
  T/C: 110 % of control
endpoint: mean survival time, dose: 100.0 mg/kg/injection, schedule: Q08DX002 (ip), vehicle: saline
  T/C: 117 % of control
endpoint: mean survival time, dose: 108.0 mg/kg/injection, schedule: Q01DX009 (sc), vehicle: saline
  T/C: 110 % of control
endpoint: mean survival time, dose: 118.0 mg/kg/injection, schedule: Q01DX001 (ip), vehicle: saline
  T/C: 158 % of control
endpoint: mean survival time, dose: 200.0 mg/kg/injection, schedule: Q01DX001 (ip), vehicle: DMSO
  T/C: 110 % of control
endpoint: mean survival time, dose: 200.0 mg/kg/injection, schedule: Q01DX001 (ip), vehicle: Klucel (hydroxypropylcellulose) (HPC)
  T/C: 119 % of control
endpoint: mean survival time, dose: 200.0 mg/kg/injection, schedule: Q01DX001 (ip), vehicle: water
  T/C: 119 % of control
endpoint: mean survival time, dose: 230.0 mg/kg/injection, schedule: Q01DX001 (ip), vehicle: saline
  T/C: 157 % of control
endpoint: mean survival time, dose: 234.0 mg/kg/injection, schedule: Q01DX001 (ip), vehicle: saline
  T/C: 168 % of control
endpoint: mean survival time, dose: 300.0 mg/kg/injection, schedule: Q01DX001 (ip), vehicle: saline
  T/C: 114 % of control
endpoint: mean survival time, dose: 400.0 mg/kg/injection, schedule: Q08DX002 (ip), vehicle: saline
  T/C: 102 % of control
endpoint: mean survival time, dose: 468.0 mg/kg/injection, schedule: Q01DX001 (ip), vehicle: saline
  T/C: 152 % of control and 172 % of control
endpoint: mean survival time, dose: 500.0 mg/kg/injection, schedule: Q01DX001 (ip), vehicle: saline
  T/C: 106 % of control
endpoint: mean survival time, dose: 560.0 mg/kg/injection, schedule: Q01DX001 (ip), vehicle: saline
  T/C: 151 % of control
endpoint: median survival time, dose: 1000.0 mg/kg/injection, schedule: Q01DX001 (oral), vehicle: saline
  T/C: 119 % of control
endpoint: median survival time, dose: 2000.0 mg/kg/injection, schedule: Q01DX001 (oral), vehicle: saline
  T/C: 516 % of control
endpoint: median survival time, dose: 8000.0 mg/kg/injection, schedule: Q01DX001 (oral), vehicle: saline
  T/C: 45 % of control
endpoint: median survival time, dose: 16000.0 mg/kg/injection, schedule: Q01DX001 (oral), vehicle: saline
  T/C: 43 % of control
